Columns and labels:
ISC-enriched organoids [1] = assay: Primary screen, 384-well 2.5-D organoid differentiation (ENR+CD, 6 days): carbachol-induced lysozyme secretion (LYZ.S); format: cell-based, murine; conditions: for Dose.FC.LYZ.S: primary screen, ENR+CD 6 days, FC vs plate median
From the text: (§1) High-throughput screening.

ISC-enriched organoids [2] = assay: Primary screen, 384-well 2.5-D organoid differentiation (ENR+CD, 6 days): basal lysozyme secretion (LYZ.NS); format: cell-based, murine; conditions: for Dose.FC.LYZ.NS / Z.LYZ.NS: primary screen; for Dose.FC.LYZ.NS: ENR+CD 6 days, FC vs plate median; for Z.LYZ.NS: standard z score of FC
From the text: as §1

ISC-enriched organoids [3] = assay: Primary screen, 384-well 2.5-D organoid differentiation (ENR+CD, 6 days, Target Selective Inhibitor Library, vs whole-plate median): ATP (CellTiter-Glo 3D, CTG); conditions: for Dose.FC.CTG / Z.CTG: primary screen; for Dose.FC.CTG: ENR+CD 6 days, FC vs plate median; for Z.CTG: standard z score of FC
[4] = dose 0.08 uM (1st of 4 lines per treatment; dose not printed in this part)
[5] = dose 0.40 uM (2nd of 4 lines per treatment; dose not printed in this part)
[6] = dose 2.00 uM (3rd of 4 lines per treatment; dose not printed in this part)
[7] = dose 10.00 uM (4th of 4 lines per treatment; dose not printed in this part)

SMILES	SSMD.LYZ.S_Rep (strictly standardized mean difference) (ISC-enriched organoids [1]; [4])	Z.LYZ.S (standard z score) (ISC-enriched organoids [1]; [4])	SSMD.LYZ.S_Rep (strictly standardized mean difference) (ISC-enriched organoids [1]; [5])	Z.LYZ.S (standard z score) (ISC-enriched organoids [1]; [5])	SSMD.LYZ.S_Rep (strictly standardized mean difference) (ISC-enriched organoids [1]; [6])	Z.LYZ.S (standard z score) (ISC-enriched organoids [1]; [6])	SSMD.LYZ.S_Rep (strictly standardized mean difference) (ISC-enriched organoids [1]; [7])	Z.LYZ.S (standard z score) (ISC-enriched organoids [1]; [7])	Dose.FC.LYZ.S (ISC-enriched organoids [1]; dose 0.08 uM) [log 2 fold change]	Dose.FC.LYZ.S (ISC-enriched organoids [1]; dose 0.40 uM) [log 2 fold change]	Dose.FC.LYZ.S (ISC-enriched organoids [1]; dose 2.00 uM) [log 2 fold change]	Dose.FC.LYZ.S (ISC-enriched organoids [1]; dose 10.00 uM) [log 2 fold change]	SSMD.LYZ.NS_Rep (strictly standardized mean difference) (ISC-enriched organoids [2]; [4])	SSMD.LYZ.NS_Rep (strictly standardized mean difference) (ISC-enriched organoids [2]; [5])	SSMD.LYZ.NS_Rep (strictly standardized mean difference) (ISC-enriched organoids [2]; [6])	SSMD.LYZ.NS_Rep (strictly standardized mean difference) (ISC-enriched organoids [2]; [7])	Dose.FC.LYZ.NS (ISC-enriched organoids [2]; dose 0.08 uM) [log 2 fold change]	Z.LYZ.NS (ISC-enriched organoids [2]; dose 0.08 uM)	Dose.FC.LYZ.NS (ISC-enriched organoids [2]; dose 0.40 uM) [log 2 fold change]	Z.LYZ.NS (ISC-enriched organoids [2]; dose 0.40 uM)	other results
CC(C)N(CC[C@H](c1ccccc1)c1cc(CO)ccc1O)C(C)C [4CE°8C]	0.194	0.205	0.053	0.073	−0.217	−0.358	−0.707	−0.836	0.032	0.011	−0.055	−0.129	0.497	0.226	0.128	−0.861	0.069	0.601	0.047	0.413	Dose.FC.LYZ.NS (ISC-enriched organoids [2]; dose 2.00 uM): 0.016 log 2 fold change; Z.LYZ.NS (ISC-enriched organoids [2]; dose 2.00 uM): 0.138; Dose.FC.LYZ.NS (ISC-enriched organoids [2]; dose 10.00 uM): −0.095 log 2 fold change; Z.LYZ.NS (ISC-enriched organoids [2]; dose 10.00 uM): −0.827; SSMD.CTG_Rep (strictly standardized mean difference) (ISC-enriched organoids [3]; [4]): −0.402; SSMD.CTG_Rep (strictly standardized mean difference) (ISC-enriched organoids [3]; [5]): 0.023; SSMD.CTG_Rep (strictly standardized mean difference) (ISC-enriched organoids [3]; [6]): −0.340; SSMD.CTG_Rep (strictly standardized mean difference) (ISC-enriched organoids [3]; [7]): −0.109; Dose.FC.CTG (ISC-enriched organoids [3]; dose 0.08 uM): −0.111 log 2 fold change; Z.CTG (ISC-enriched organoids [3]; dose 0.08 uM): −0.265; Dose.FC.CTG (ISC-enriched organoids [3]; dose 0.40 uM): 0.007 log 2 fold change; Z.CTG (ISC-enriched organoids [3]; dose 0.40 uM): 0.018; Dose.FC.CTG (ISC-enriched organoids [3]; dose 2.00 uM): −0.162 log 2 fold change; Z.CTG (ISC-enriched organoids [3]; dose 2.00 uM): −0.387; Dose.FC.CTG (ISC-enriched organoids [3]; dose 10.00 uM): −0.039 log 2 fold change; Z.CTG (ISC-enriched organoids [3]; dose 10.00 uM): −0.094
O=C(O)c1ccc(N2C(=O)/C(=C\c3ccc(-c4ccc([N+](=O)[O-])cc4)o3)C=C2c2ccccc2)cc1 [4E1RCat]	0.712	0.690	0.185	0.247	0.311	0.316	0.321	0.530	0.107	0.038	0.049	0.082	0.883	−0.121	0.437	0.053	0.100	0.874	−0.018	−0.154	Dose.FC.LYZ.NS (ISC-enriched organoids [2]; dose 2.00 uM): 0.151 log 2 fold change; Z.LYZ.NS (ISC-enriched organoids [2]; dose 2.00 uM): 1.316; Dose.FC.LYZ.NS (ISC-enriched organoids [2]; dose 10.00 uM): 0.007 log 2 fold change; Z.LYZ.NS (ISC-enriched organoids [2]; dose 10.00 uM): 0.062; SSMD.CTG_Rep (strictly standardized mean difference) (ISC-enriched organoids [3]; [4]): 0.790; SSMD.CTG_Rep (strictly standardized mean difference) (ISC-enriched organoids [3]; [5]): 0.559; SSMD.CTG_Rep (strictly standardized mean difference) (ISC-enriched organoids [3]; [6]): 0.022; SSMD.CTG_Rep (strictly standardized mean difference) (ISC-enriched organoids [3]; [7]): −0.026; Dose.FC.CTG (ISC-enriched organoids [3]; dose 0.08 uM): 0.246 log 2 fold change; Z.CTG (ISC-enriched organoids [3]; dose 0.08 uM): 0.587; Dose.FC.CTG (ISC-enriched organoids [3]; dose 0.40 uM): 0.362 log 2 fold change; Z.CTG (ISC-enriched organoids [3]; dose 0.40 uM): 0.864; Dose.FC.CTG (ISC-enriched organoids [3]; dose 2.00 uM): 0.006 log 2 fold change; Z.CTG (ISC-enriched organoids [3]; dose 2.00 uM): 0.015; Dose.FC.CTG (ISC-enriched organoids [3]; dose 10.00 uM): −0.011 log 2 fold change; Z.CTG (ISC-enriched organoids [3]; dose 10.00 uM): −0.026
CC(C)N(CC[C@H](c1ccccc1)c1cc(CO)ccc1O)C(C)C [5-hydroxymethyl Tolterodine (PNU 200577, 5-HMT, 5-HM)]	0.460	0.417	0.266	0.231	0.174	0.152	−0.042	−0.044	0.065	0.036	0.023	−0.007	0.915	0.760	0.947	0.223	0.184	1.599	0.076	0.665	Dose.FC.LYZ.NS (ISC-enriched organoids [2]; dose 2.00 uM): 0.154 log 2 fold change; Z.LYZ.NS (ISC-enriched organoids [2]; dose 2.00 uM): 1.344; Dose.FC.LYZ.NS (ISC-enriched organoids [2]; dose 10.00 uM): 0.034 log 2 fold change; Z.LYZ.NS (ISC-enriched organoids [2]; dose 10.00 uM): 0.293; SSMD.CTG_Rep (strictly standardized mean difference) (ISC-enriched organoids [3]; [4]): −0.118; SSMD.CTG_Rep (strictly standardized mean difference) (ISC-enriched organoids [3]; [5]): 0.291; SSMD.CTG_Rep (strictly standardized mean difference) (ISC-enriched organoids [3]; [6]): 0.114; SSMD.CTG_Rep (strictly standardized mean difference) (ISC-enriched organoids [3]; [7]): 0.061; Dose.FC.CTG (ISC-enriched organoids [3]; dose 0.08 uM): −0.062 log 2 fold change; Z.CTG (ISC-enriched organoids [3]; dose 0.08 uM): −0.149; Dose.FC.CTG (ISC-enriched organoids [3]; dose 0.40 uM): 0.087 log 2 fold change; Z.CTG (ISC-enriched organoids [3]; dose 0.40 uM): 0.207; Dose.FC.CTG (ISC-enriched organoids [3]; dose 2.00 uM): 0.034 log 2 fold change; Z.CTG (ISC-enriched organoids [3]; dose 2.00 uM): 0.082; Dose.FC.CTG (ISC-enriched organoids [3]; dose 10.00 uM): 0.017 log 2 fold change; Z.CTG (ISC-enriched organoids [3]; dose 10.00 uM): 0.040
C=CCNC1=C2C[C@@H](C)C[C@H](OC)[C@H](O)[C@@H](C)/C=C(\C)[C@H](OC(N)=O)[C@@H](OC)/C=C\C=C(/C)C(=O)NC(=CC1=O)C2=O [17-AAG (Tanespimycin)]	−1.387	−1.826	−1.428	−2.199	−1.462	−2.219	−1.655	−1.975	−0.282	−0.340	−0.343	−0.306	−1.180	−1.186	−1.053	−1.183	−0.193	−1.682	−0.205	−1.786	Dose.FC.LYZ.NS (ISC-enriched organoids [2]; dose 2.00 uM): −0.142 log 2 fold change; Z.LYZ.NS (ISC-enriched organoids [2]; dose 2.00 uM): −1.239; Dose.FC.LYZ.NS (ISC-enriched organoids [2]; dose 10.00 uM): −0.187 log 2 fold change; Z.LYZ.NS (ISC-enriched organoids [2]; dose 10.00 uM): −1.631; SSMD.CTG_Rep (strictly standardized mean difference) (ISC-enriched organoids [3]; [4]): −0.926; SSMD.CTG_Rep (strictly standardized mean difference) (ISC-enriched organoids [3]; [5]): −1.023; SSMD.CTG_Rep (strictly standardized mean difference) (ISC-enriched organoids [3]; [6]): −1.783; SSMD.CTG_Rep (strictly standardized mean difference) (ISC-enriched organoids [3]; [7]): −1.348; Dose.FC.CTG (ISC-enriched organoids [3]; dose 0.08 uM): −1.012 log 2 fold change; Z.CTG (ISC-enriched organoids [3]; dose 0.08 uM): −2.418; Dose.FC.CTG (ISC-enriched organoids [3]; dose 0.40 uM): −1.262 log 2 fold change; Z.CTG (ISC-enriched organoids [3]; dose 0.40 uM): −3.015; Dose.FC.CTG (ISC-enriched organoids [3]; dose 2.00 uM): −1.459 log 2 fold change; Z.CTG (ISC-enriched organoids [3]; dose 2.00 uM): −3.486; Dose.FC.CTG (ISC-enriched organoids [3]; dose 10.00 uM): −1.446 log 2 fold change; Z.CTG (ISC-enriched organoids [3]; dose 10.00 uM): −3.454
CN1CCc2cc3c(cc2[C@H]1[C@@H]1OC(=O)c2c1ccc1c2OCO1)OCO3 [(+)-Bicuculline]	0.545	1.005	0.216	0.221	−0.164	−0.169	0.264	0.465	0.155	0.034	−0.026	0.072	0.481	0.106	0.276	0.175	0.092	0.805	0.013	0.116	Dose.FC.LYZ.NS (ISC-enriched organoids [2]; dose 2.00 uM): 0.031 log 2 fold change; Z.LYZ.NS (ISC-enriched organoids [2]; dose 2.00 uM): 0.270; Dose.FC.LYZ.NS (ISC-enriched organoids [2]; dose 10.00 uM): 0.020 log 2 fold change; Z.LYZ.NS (ISC-enriched organoids [2]; dose 10.00 uM): 0.176; SSMD.CTG_Rep (strictly standardized mean difference) (ISC-enriched organoids [3]; [4]): 0.472; SSMD.CTG_Rep (strictly standardized mean difference) (ISC-enriched organoids [3]; [5]): −0.078; SSMD.CTG_Rep (strictly standardized mean difference) (ISC-enriched organoids [3]; [6]): −0.237; SSMD.CTG_Rep (strictly standardized mean difference) (ISC-enriched organoids [3]; [7]): −0.405; Dose.FC.CTG (ISC-enriched organoids [3]; dose 0.08 uM): 0.318 log 2 fold change; Z.CTG (ISC-enriched organoids [3]; dose 0.08 uM): 0.760; Dose.FC.CTG (ISC-enriched organoids [3]; dose 0.40 uM): −0.029 log 2 fold change; Z.CTG (ISC-enriched organoids [3]; dose 0.40 uM): −0.069; Dose.FC.CTG (ISC-enriched organoids [3]; dose 2.00 uM): −0.166 log 2 fold change; Z.CTG (ISC-enriched organoids [3]; dose 2.00 uM): −0.396; Dose.FC.CTG (ISC-enriched organoids [3]; dose 10.00 uM): −0.132 log 2 fold change; Z.CTG (ISC-enriched organoids [3]; dose 10.00 uM): −0.315
